How the values were obtained:
SARS-CoV-2 = format: cell-based

OC[C@H]1NC[C@H](O)[C@@H](O)[C@@H]1O [Comparative Example 2, 1-Deoxynojirimycin]
IC50 (SARS-CoV-2; SARS-CoV-2 (0.0125 MOI) in Vero cells, 24 hours, N protein immunofluorescence, highest concentration 500 μg/ml, two repeated experiments): >500 µg/mL | inhibition of infection with SARS-CoV-2 (in words) (SARS-CoV-2; Vero cells, up to 500 μg/ml): did not inhibit infection | CC50 (Vero cells): >500 µg/mL

Propolis [Comparative Example 1]
CC50 (Vero cells): >500 µg/mL

From patent US20220323533A1, “COMPOSITION FOR PREVENTING, INHIBITING OR TREATING INFECTION OF CORONAVIRUS” (priority 2021, published 2022)
